Source: patent US8492418B2, “Method of treating schizophrenia prodrome” (Yale University, priority 2005, dated 2013)
Read-outs that look alike come from different tables or passages of the source.

Assays:
[1] = tested on: prodromal patients; conditions: risperidone plus cognitive therapy plus usual care; 59 patients randomized; cited from earlier work
[2] = tested on: prodromal patients (schizophrenia prodrome)
Source text: I therefore treated 10 patients meeting criteria for the schizophrenia prodrome with the NMDA […] glycine, used alone without antipsychotic medication. […] To my knowledge, this represents the first attempt to use direct or indirect NMDA/glycine agonists for patients with the schizophrenia prodrome.
The inventor of the present invention enrolled 10 prodromal patients in an eight-week open label trial of oral glycine. The patients were seven males and three females, whose mean±sd age was 17.3±3.3 years. All ten patients met schizophrenia prodrome diagnostic criteria, attenuated positive symptom subgroup, according to the Structured Interview for Prodromal Syndromes (Miller et al., 2002). The mean Scale of Prodromal Symptoms (SOPS) total score at baseline was 39.7, and the positive and negative subscale score means were respectively 11.3 and 12.4 (Table 1).
Glycine was administered orally as powder mixed with water at a dose titrated to 0.4 g/kg BID by week two. Concomitant medications were continued so long as there had been no dose adjustments in the eight weeks prior to enrollment and the patient continued to meet prodromal symptomatic criteria at baseline. Efficacy was assessed using the Scale of Prodromal Symptoms (SOPS). The SOPS consists of 19 items, each scored 0-6, and yields a total score and positive symptom (5 items), negative symptom (six items), disorganization (4 items), and general symptom (4 items) subscale scores.
Categorical outcomes. […] These criteria required all five positive symptom ratings to be below the prodromal range (2 or below).
Group SOPS change analysis. […] Data for the placebo and olanzapine samples shown are from the published double blind randomized comparison of olanzapine vs placebo (Woods et al., 2003). Data for ethyl-EPA (an omega-3 fatty acid) are from an ongoing unpublished open label trial that follows a design nearly identical to the current glycine pilot study.
To accomplish this we modified for the one sample case the sequential monitoring method of O'Brien and Fleming that protects the overall alpha from […] due to multiple looks (Woods and McGlashan, 2002). […] Analyses were planned every 5 patients.

[3] = tested on: chronic patients with persistent negative symptoms (schizophrenia); conditions: 157 chronic patients, four sites, adjunctive treatment vs placebo; cited from earlier work
[4] = tested on: acutely exacerbated patients (schizophrenia); conditions: 65 acutely exacerbated patients, in addition to antipsychotic; cited from earlier work
[5] = target: glycine binding site of the NMDA receptor (Homo sapiens, UniProt Q05586); conditions: partial agonist; cited from earlier work
[6] = tested on: prodromal patients (schizophrenia prodrome); experiment: ongoing unpublished open label trial of ethyl-EPA, design nearly identical to the glycine pilot study; type: in vivo, human; conditions: 8 weeks, n=7
Source text: Group SOPS change analysis. […] The effect sizes observed with glycine are substantially larger than those observed in my parallel studies with other medications (Table 2). Data for the placebo and olanzapine samples shown are from the published double blind randomized comparison of olanzapine vs placebo (Woods et al., 2003). […] The very large differences between the glycine effect sizes and the placebo effect sizes provide strong support for efficacy. The large differences between the glycine effect sizes and the olanzapine effect sizes are also impressive.

[7] = 8 weeks, n=10, baseline score as covariate
[8] = 8 weeks, open label glycine, n=10
[9] = endpoint (LOCF) minus baseline, 8 weeks, n=10
[10] = oral glycine titrated to 0.4 g/kg BID, 8 weeks, LOCF, n=10

Compound: Cc1nc2n(c(=O)c1CCN1CCC(c3noc4cc(F)ccc34)CC1)CCCC2 [risperidone]
- six month conversion to psychosis rate [1]: 9.7%

Compound: NCC(=O)O [Glycine, glycine]
- group SOPS change, LOCF analysis ([2]; 8 weeks, n=10): improved significantly as a group on the total score and on all four subscales
- group SOPS change, MMRM analysis ([2]; 8 weeks, n=10): improved significantly as a group on the total score and on 3/4 subscales
- MMRM-based within group SOPS improvement, DIS [2, 7]: 3.9 ± 2.2
- MMRM-based within group SOPS improvement, GEN [2, 7]: 4.1 ± 3.5
- MMRM-based within group SOPS improvement, NEG [2, 7]: 3.0 ± 5.2
- MMRM-based within group SOPS improvement, POS [2, 7]: 7.4 ± 3.2
- MMRM-based within group SOPS improvement, TOTAL [2, 7]: 18.2 ± 9.9
- SOPS LOCF within group effect size, DIS [2, 8]: 1.05
- SOPS LOCF within group effect size, GEN [2, 8]: 1.12
- SOPS LOCF within group effect size, NEG [2, 8]: 0.74
- SOPS LOCF within group effect size, POS [2, 8]: 1.10
- SOPS LOCF within group effect size, TOTAL [2, 8]: 1.39
- conversion to psychosis ([2]; 10 glycine-treated patients, 8 weeks): None of the glycine-treated patients converted to psychosis
- sequential monitoring vs historical placebo (sufficiency) ([2]; O'Brien and Fleming method modified for one sample): crossed the decision boundary for sufficiency after 10 patients
- SOPS DIS score, baseline mean ([2]; baseline, before glycine, disorganization subscale, n=10): 6.5
- SOPS GEN score, baseline mean ([2]; baseline, before glycine, general symptom subscale, n=10): 9.5
- SOPS TOTAL score, baseline mean ([2]; baseline, before glycine, n=10): 39.7
- SOPS NEG score, baseline mean ([2]; baseline, before glycine, negative symptom subscale, n=10): 12.4
- SOPS POS score, baseline mean ([2]; baseline, before glycine, positive symptom subscale, n=10): 11.3
- SOPS DIS endpoint change, mean [2, 9]: −3.1
- SOPS GEN endpoint change, mean [2, 9]: −3.5
- SOPS NEG endpoint change, mean [2, 9]: −3.0
- SOPS POS endpoint change, mean [2, 9]: −5.7
- SOPS TOTAL endpoint change, mean [2, 9]: −15.3
- early remission criteria met (all five positive symptom ratings 2 or below) ([2]; of the seven completers, during 8 weeks on glycine): three met early remission criteria
- SOPS DIS score, endpoint (LOCF) mean [2, 10]: 3.4
- SOPS GEN score, endpoint (LOCF) mean [2, 10]: 6.0
- SOPS NEG score, endpoint (LOCF) mean [2, 10]: 9.4
- SOPS POS score, endpoint (LOCF) mean [2, 10]: 5.6
- SOPS TOTAL score, endpoint (LOCF) mean [2, 10]: 24.4
- difference among treatment groups [3]: no significant differences overall among groups

Compound: N[C@H](CO)C(=O)O [D-serine]
- separation from placebo [4]: did not separate from placebo

Compound: NC1CONC1=O [D-cycloserine, 4-aminoisoxazolidin-3-one, reference compound]
- difference among treatment groups [3]: no significant differences overall among groups
- activation relative to that seen with glycine, D-alanine or D-serine [5]: 40-60%

Compound: CNCC(=O)O [sarcosine]
- separation from placebo [4]: did

Compound: CC/C=C\C/C=C\C/C=C\C/C=C\C/C=C\CCCC(=O)OCC [Ethyl-EPA, ethyl-EPA]
- SOPS LOCF within group effect size, DIS [6]: −0.05
- SOPS LOCF within group effect size, GEN [6]: −0.17
- SOPS LOCF within group effect size, NEG [6]: 0.24
- SOPS LOCF within group effect size, POS [6]: 0.47
- SOPS LOCF within group effect size, TOTAL [6]: 0.18
